“And” between values parts separate entries of the source, which are not always exact repeats. Equal values may be shown once. Inconclusive results and toxic doses are left out.
System: P388 leukemia ip, CD2F1 mice, survival T/C
Assay: NCI In Vivo Anticancer Drug Screen. Data for tumor model P388 Leukemia (intraperitoneal) in CD2F1 (CDF1) mice
Conditions: endpoint: median survival time, higher = longer survival
In short: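 Mice carrying the transplanted tumor received test compound or vehicle. Survival was recorded in each group, and the value is the treated-group measurement divided by that of the vehicle-treated control group.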

[1] = dose: 50.0 mg/kg/injection, schedule: Q01DX005 (ip), vehicle: saline with Tween-80
[2] = dose: 100.0 mg/kg/injection, schedule: Q01DX005 (ip), vehicle: saline with Tween-80
[3] = dose: 200.0 mg/kg/injection, schedule: Q01DX005 (ip), vehicle: saline with Tween-80
[4] = dose: 50.0 mg/kg/injection, schedule: Q01DX005 (ip), vehicle: Klucel (hydroxypropylcellulose) (HPC)
[5] = dose: 100.0 mg/kg/injection, schedule: Q01DX005 (ip), vehicle: Klucel (hydroxypropylcellulose) (HPC)
[6] = dose: 200.0 mg/kg/injection, schedule: Q01DX005 (ip), vehicle: Klucel (hydroxypropylcellulose) (HPC)
[7] = dose: 8.0 mg/kg/injection, schedule: Q01DX005 (ip), vehicle: Klucel (hydroxypropylcellulose) (HPC)
[8] = dose: 12.5 mg/kg/injection, schedule: Q01DX009 (ip), vehicle: saline with Tween-80
[9] = dose: 25.0 mg/kg/injection, schedule: Q01DX009 (ip), vehicle: saline with Tween-80
[10] = dose: 50.0 mg/kg/injection, schedule: Q01DX009 (ip), vehicle: suspension in saline
[11] = dose: 100.0 mg/kg/injection, schedule: Q01DX009 (ip), vehicle: suspension in saline
[12] = dose: 200.0 mg/kg/injection, schedule: Q01DX009 (ip), vehicle: suspension in saline
[13] = dose: 50.0 mg/kg/injection, schedule: Q01DX009 (ip), vehicle: Klucel (hydroxypropylcellulose) (HPC)
[14] = dose: 100.0 mg/kg/injection, schedule: Q01DX009 (ip), vehicle: Klucel (hydroxypropylcellulose) (HPC)
[15] = dose: 200.0 mg/kg/injection, schedule: Q01DX009 (ip), vehicle: Klucel (hydroxypropylcellulose) (HPC)
[16] = dose: 100.0 mg/kg/injection, schedule: Q01DX001 (ip), vehicle: saline with Tween-80
[17] = dose: 200.0 mg/kg/injection, schedule: Q01DX001 (ip), vehicle: saline with Tween-80
[18] = dose: 400.0 mg/kg/injection, schedule: Q01DX001 (ip), vehicle: saline with Tween-80
[19] = dose: 60.0 mg/kg/injection, schedule: Q01DX005 (ip), vehicle: saline with Tween-80
[20] = dose: 120.0 mg/kg/injection, schedule: Q01DX005 (ip), vehicle: saline with Tween-80
[21] = dose: 240.0 mg/kg/injection, schedule: Q01DX005 (ip), vehicle: saline with Tween-80

C[n+]1cc(Cl)cc(Br)c1
T/C (dose: 25.0 mg/kg/injection, schedule: Q01DX005 (ip), vehicle: saline): 117 % of control

O=[N+]([O-])c1ccc(S(=O)(=O)OI(O)c2ccccc2)cc1
T/C (dose: 25.0 mg/kg/injection, schedule: Q01DX009 (ip), vehicle: water): 104 % of control and 105 % of control | T/C (dose: 50.0 mg/kg/injection, schedule: Q01DX009 (ip), vehicle: water): 98 % of control and 120 % of control and 96 % of control | T/C (dose: 100.0 mg/kg/injection, schedule: Q01DX009 (ip), vehicle: water): 100 % of control and 101 % of control and 91 % of control

O=C1CSCC(=O)OCCOCCOCCOCCO1
T/C (dose: 100.0 mg/kg/injection, schedule: Q04DX003 (ip), vehicle: saline): 100 % of control | T/C (dose: 200.0 mg/kg/injection, schedule: Q04DX003 (ip), vehicle: saline): 101 % of control | T/C (dose: 400.0 mg/kg/injection, schedule: Q04DX003 (ip), vehicle: saline): 100 % of control

COc1ccc2c(c1)OCCCO/N=C(\c1ccccc1)c1ccc(OC)cc1OCCCO/N=C/2c1ccccc1 (tested in a mixture with another compound)
T/C [1]: 103 % of control | T/C [2]: 103 % of control | T/C [3]: 98 % of control

CC(=O)Nc1cc2cc(NS(=O)(=O)c3ccc(Cl)c(Cl)c3)ccc2oc1=O
T/C [4]: 89 % of control | T/C [5]: 93 % of control | T/C [6]: 95 % of control

C/C=C(/C)C(=O)OC1CC(C)=CC(OC(=O)/C(C)=C\C)[C@]2(C)C1[C@](O)(C(C)C)C[C@H]2O (stereo partly drawn)
T/C (dose: 2.0 mg/kg/injection, schedule: Q01DX005 (ip), vehicle: Klucel (hydroxypropylcellulose) (HPC)): 106 % of control | T/C (dose: 4.0 mg/kg/injection, schedule: Q01DX005 (ip), vehicle: Klucel (hydroxypropylcellulose) (HPC)): 96 % of control | T/C [7]: 99 % of control | T/C (dose: 16.0 mg/kg/injection, schedule: Q01DX005 (ip), vehicle: Klucel (hydroxypropylcellulose) (HPC)): 99 % of control

CCC(=O)c1c(C)oc2ccc(O)cc12
T/C (dose: 25.0 mg/kg/injection, schedule: Q04DX002 (ip), vehicle: Klucel (hydroxypropylcellulose) (HPC)): 94 % of control | T/C (dose: 50.0 mg/kg/injection, schedule: Q04DX002 (ip), vehicle: Klucel (hydroxypropylcellulose) (HPC)): 89 % of control | T/C (dose: 100.0 mg/kg/injection, schedule: Q04DX002 (ip), vehicle: Klucel (hydroxypropylcellulose) (HPC)): 91 % of control | T/C (dose: 200.0 mg/kg/injection, schedule: Q04DX002 (ip), vehicle: Klucel (hydroxypropylcellulose) (HPC)): 90 % of control | T/C (dose: 400.0 mg/kg/injection, schedule: Q04DX002 (ip), vehicle: Klucel (hydroxypropylcellulose) (HPC)): 90 % of control

COc1cc([C@@H]2c3cc4c(cc3[C@H](O)[C@H]3COC(=O)[C@H]23)OCO4)cc(OC)c1OC
T/C (dose: 0.5 mg/kg/injection, schedule: Q01DX005 (ip), vehicle: Klucel (hydroxypropylcellulose) (HPC)): 121 % of control | T/C (dose: 1.0 mg/kg/injection, schedule: Q01DX005 (ip), vehicle: Klucel (hydroxypropylcellulose) (HPC)): 117 % of control | T/C (dose: 1.0 mg/kg/injection, schedule: Q01DX005 (ip), vehicle: saline with Tween-80): 118 % of control | T/C (dose: 2.0 mg/kg/injection, schedule: Q01DX005 (ip), vehicle: saline with Tween-80): 121 % of control | T/C [7]: 152 % of control

OCC1C=CCC1 (stereo not drawn)
T/C (dose: 6.25 mg/kg/injection, schedule: Q01DX009 (ip), vehicle: saline with Tween-80): 99 % of control | T/C [8]: 101 % of control | T/C [9]: 90 % of control

O=[N+]([O-])c1ccc(CS(=O)(=O)c2ccccc2)o1
T/C [10]: 103 % of control | T/C [11]: 100 % of control | T/C [12]: 105 % of control

c1ccc([P+]23OCCN2CCO3)cc1
T/C (dose: 100.0 mg/kg/injection, schedule: Q04DX003 (ip), vehicle: saline with Tween-80): 104 % of control | T/C (dose: 200.0 mg/kg/injection, schedule: Q04DX003 (ip), vehicle: saline with Tween-80): 98 % of control | T/C (dose: 400.0 mg/kg/injection, schedule: Q04DX003 (ip), vehicle: saline with Tween-80): 102 % of control

CS(=O)(=O)Nc1ccc(NC(=O)c2c3ccccc3nc3ccccc23)cc1
T/C (dose: 12.5 mg/kg/injection, schedule: Q01DX005 (ip), vehicle: saline with Tween-80): 103 % of control | T/C (dose: 25.0 mg/kg/injection, schedule: Q01DX005 (ip), vehicle: saline with Tween-80): 99 % of control | T/C [1]: 109 % of control and 110 % of control

C/C(=C\C(=O)Nc1ncn[nH]1)Nc1ncn[nH]1
T/C [13]: 107 % of control | T/C [14]: 100 % of control | T/C [15]: 100 % of control | T/C (dose: 400.0 mg/kg/injection, schedule: Q01DX009 (ip), vehicle: Klucel (hydroxypropylcellulose) (HPC)): 99 % of control

CC12CCCCC1=Nc1ccc3ccccc3c12 (stereo not drawn)
T/C [8]: 92 % of control | T/C [9]: 90 % of control | T/C (dose: 50.0 mg/kg/injection, schedule: Q01DX009 (ip), vehicle: saline with Tween-80): 92 % of control

O=C(O)C1CSC(c2ccc(Cl)cc2)N1 (stereo not drawn)
T/C [10]: 95 % of control | T/C [11]: 95 % of control | T/C [12]: 95 % of control and 96 % of control

CS(=O)(=O)OCC1OCC(OS(C)(=O)=O)C1O (stereo not drawn)
T/C (dose: 50.0 mg/kg/injection, schedule: Q01DX001 (ip), vehicle: Klucel (hydroxypropylcellulose) (HPC)): 101 % of control | T/C (dose: 100.0 mg/kg/injection, schedule: Q01DX001 (ip), vehicle: Klucel (hydroxypropylcellulose) (HPC)): 102 % of control | T/C (dose: 200.0 mg/kg/injection, schedule: Q01DX001 (ip), vehicle: Klucel (hydroxypropylcellulose) (HPC)): 101 % of control

CCCCCC1C(=O)CNC1(C(=O)OCC)C(=O)OCC (stereo not drawn)
T/C (dose: 12.5 mg/kg/injection, schedule: Q01DX009 (ip), vehicle: Klucel (hydroxypropylcellulose) (HPC)): 104 % of control | T/C (dose: 25.0 mg/kg/injection, schedule: Q01DX009 (ip), vehicle: Klucel (hydroxypropylcellulose) (HPC)): 108 % of control | T/C [13]: 104 % of control | T/C [14]: 88 % of control | T/C [15]: 89 % of control

CCCCNC(=O)C(C)OC(=O)C(CC)CCCC (stereo not drawn)
T/C (dose: 25.0 mg/kg/injection, schedule: Q01DX005 (ip), vehicle: Klucel (hydroxypropylcellulose) (HPC)): 105 % of control | T/C [4]: 100 % of control | T/C [5]: 102 % of control | T/C [6]: 105 % of control

Cc1cc(N/N=C/c2ccccn2)nc2c(C)cccc12
T/C [1]: 90 % of control | T/C [2]: 91 % of control | T/C [3]: 100 % of control

CCC(=N\NC(=S)NCCN(CC)CC)/C(C)=N/NC(=S)NCCN(CC)CC
T/C (dose: 1.56 mg/kg/injection, schedule: Q01DX009 (ip), vehicle: saline): 94 % of control | T/C (dose: 3.13 mg/kg/injection, schedule: Q01DX009 (ip), vehicle: saline): 118 % of control | T/C (dose: 6.25 mg/kg/injection, schedule: Q01DX009 (ip), vehicle: saline): 106 % of control | T/C (dose: 12.5 mg/kg/injection, schedule: Q01DX009 (ip), vehicle: saline): 101 % of control

Cc1ccc(Cl)c(C(O)(C(F)(F)F)C(F)(F)F)c1
T/C (dose: 100.0 mg/kg/injection, schedule: Q01DX001 (ip), vehicle: other): 95 % of control | T/C [16]: 108 % of control | T/C (dose: 200.0 mg/kg/injection, schedule: Q01DX001 (ip), vehicle: other): 92 % of control | T/C [17]: 108 % of control | T/C [18]: 93 % of control

COC1(C)CC(c2ccccc2)=NO1 (stereo not drawn)
T/C [19]: 96 % of control | T/C [20]: 103 % of control | T/C [21]: 96 % of control

Cc1ccc(S(=O)(=O)N(N)CCC#N)cc1
T/C [4]: 94 % of control | T/C [5]: 97 % of control | T/C [6]: 96 % of control

COC(=O)c1cc2c(nn1)C(=O)Nc1ccccc1C2(C)C
T/C [19]: 100 % of control | T/C [20]: 105 % of control | T/C [21]: 96 % of control

CCOc1ccc(/C=N/NC(=O)C(=O)N/N=C/c2ccc(OCC)c(OCC)c2)cc1OCC
T/C (dose: 6.25 mg/kg/injection, schedule: Q01DX005 (ip), vehicle: Klucel (hydroxypropylcellulose) (HPC)): 102 % of control and 95 % of control and 96 % of control | T/C [13]: 90 % of control | T/C [15]: 92 % of control

COc1cc(C)c(/C(=N/O)n2nnc(-c3ccc(Cl)cc3)n2)c(C)c1
T/C [16]: 123 % of control | T/C [17]: 114 % of control | T/C [18]: 95 % of control

— PubChem BioAssay AID330 (DTP/NCI, 2004)
